According to the NIST ThermoML archive (doi:10.1016/j.jct.2006.03.013):
± gives the expanded uncertainty stated by the source.

details: 182.33 K; Liquid; Closed cell (Static) method

Row | vapor or sublimation pressure | Structure (SMILES)
1 | 0.419 ± 0.011 kPa | CCCC [butane]
2 | 88.97 ± 0.39 kPa | CC [ethane]
3 | 6.02 ± 0.044 kPa | CCC [propane]
